Measured values as given in PubChem BioAssay AID1259411 (Chemical Carcinogenesis Research Information System (CCRIS), 2018).
The source made the active and inactive calls. No rule for the calls is given here.

Test system: rodent carcinogenicity bioassays, tumor incidence
Assay: CCRIS carcinogenicity studies
In short: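 NCI-built, expert-reviewed records of carcinogenicity and related test outcomes (mutagenicity, tumor promotion/inhibition) compiled from published and report sources, historical span 1985-2011, not updated.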

`S=C1NCCN1` was tested, and the carcinogen call (Species: MOUSE, Strain/Sex: B6AKF1/MALE,FEMALE, Route: GAVAGE/ORAL, Dose: 215 MG/KG IN GELATIN FROM DAY 7-28 OF LIFE THEN 646 PPM IN DIET, Tumor Site: Type of Lesion: LIVER: HEPATOMA, LYMPHATIC SYSTEM: LYMPHOMA) was “active; positive”, the carcinogen call (Species: MOUSE, Strain/Sex: B6C3F1/FEMALE, Route: ORAL, Dose: 0, 100, 330, 1000 PPM IN FEED FOR 24 MO, ADMINISTRATION BEGUN AT 8 WK OF AGE TO ANIMALS EXPOSED PERINATALLY BY ORAL, Dose: 0, 100, 330, 1000 PPM IN FEED FOR 24 MO, ADMINISTRATION BEGUN AT 8 WK OF AGE TO ANIMALS EXPOSED PERINATALLY BY ORAL, Tumor Site: Type of Lesion: LIVER: HEPATOCELLULAR ADENOMA, HEPATOCELLULAR CARCINOMA, PITUITARY GLAND, PARS DISTALIS: ADENOMA, THYROID GLAND: FOLLICU, Tumor Site: Type of Lesion: LIVER: HEPATOCELLULAR ADENOMA, HEPATOCELLULAR CARCINOMA, PITUITARY GLAND, PARS DISTALIS: ADENOMA, THYROID GLAND: FOLLICU) was “active; positive” and the carcinogen call (Species: MOUSE, Strain/Sex: B6C3F1/FEMALE, Route: ORAL, Dose: 0, 330, 1000 PPM IN FEED FOR 24 MO (STUDY DURATION: 2 YR), Dose: 0, 330, 1000 PPM IN FEED FOR 24 MO (STUDY DURATION: 2 YR), Tumor Site: Type of Lesion: LIVER: HEPATOCELLULAR ADENOMA, HEPATOCELLULAR CARCINOMA, PITUITARY GLAND, PARS DISTALIS: ADENOMA, THYROID GLAND: FOLLICU, Tumor Site: Type of Lesion: LIVER: HEPATOCELLULAR ADENOMA, HEPATOCELLULAR CARCINOMA, PITUITARY GLAND, PARS DISTALIS: ADENOMA, THYROID GLAND: FOLLICU) was “active; positive”. For the same compound, the carcinogen call (Species: MOUSE, Strain/Sex: B6C3F1/MALE,FEMALE, Route: GAVAGE/ORAL, Dose: 215 MG/KG IN GELATIN FROM DAY 7-28 OF LIFE THEN 646 PPM IN DIET, Tumor Site: Type of Lesion: LIVER: HEPATOMA, LYMPHATIC SYSTEM: LYMPHOMA) was “active; positive”, the carcinogen call (Species: MOUSE, Strain/Sex: B6C3F1/MALE, Route: ORAL, Dose: 0, 100, 330, 1000 PPM IN FEED FOR 24 MO, ADMINISTRATION BEGUN AT 8 WK OF AGE TO ANIMALS EXPOSED PERINATALLY BY ORAL, Dose: 0, 100, 330, 1000 PPM IN FEED FOR 24 MO, ADMINISTRATION BEGUN AT 8 WK OF AGE TO ANIMALS EXPOSED PERINATALLY BY ORAL, Tumor Site: Type of Lesion: LIVER: HEPATOCELLULAR CARCINOMA, HEPATOCELLULAR ADENOMA OR CARCINOMA, THYROID GLAND: FOLLICULAR CELL ADENOMA, FOLLICULAR) was “active; positive” and the carcinogen call (Species: MOUSE, Strain/Sex: B6C3F1/MALE, Route: ORAL, Dose: 0, 330, 1000 PPM IN FEED FOR 24 MO (STUDY DURATION: 2 YR), Dose: 0, 330, 1000 PPM IN FEED FOR 24 MO (STUDY DURATION: 2 YR), Tumor Site: Type of Lesion: LIVER: HEPATOCELLULAR CARCINOMA, PITUITARY GLAND, PARS DISTALIS: ADENOMA, THYROID GLAND: FOLLICULAR CELL ADENOMA, Tumor Site: Type of Lesion: LIVER: HEPATOCELLULAR CARCINOMA, PITUITARY GLAND, PARS DISTALIS: ADENOMA, THYROID GLAND: FOLLICULAR CELL ADENOMA) was “active; positive”. For the same compound, the carcinogen call (Species: RAT, Strain/Sex: F344/FEMALE, Route: ORAL, Dose: 0, 25, 83, 250 PPM IN FEED FOR 24 MO, ADMINISTRATION BEGUN AT 8 WK OF AGE TO ANIMALS EXPOSED PERINATALLY BY ORAL DOS, Dose: 0, 25, 83, 250 PPM IN FEED FOR 24 MO, ADMINISTRATION BEGUN AT 8 WK OF AGE TO ANIMALS EXPOSED PERINATALLY BY ORAL DOS, Tumor Site: Type of Lesion: THYROID GLAND: FOLLICULAR CELL ADENOMA, FOLLICULAR CELL CARCINOMA) was “active; positive”, the carcinogen call (Species: RAT, Strain/Sex: F344/FEMALE, Route: ORAL, Dose: 0, 83, 250 PPM IN FEED FOR 24 MO (STUDY DURATION: 2 YR), Dose: 0, 83, 250 PPM IN FEED FOR 24 MO (STUDY DURATION: 2 YR), Tumor Site: Type of Lesion: THYROID GLAND: FOLLICULAR CELL ADENOMA, FOLLICULAR CELL CARCINOMA) was “active; positive” and the carcinogen call (Species: RAT, Strain/Sex: F344/MALE, Route: ORAL, Dose: 0, 25, 83, 250 PPM IN FEED FOR 24 MO, ADMINISTRATION BEGUN AT 8 WK OF AGE TO ANIMALS EXPOSED PERINATALLY BY DOSES TO, Dose: 0, 25, 83, 250 PPM IN FEED FOR 24 MO, ADMINISTRATION BEGUN AT 8 WK OF AGE TO ANIMALS EXPOSED PERINATALLY BY DOSES TO, Tumor Site: Type of Lesion: THYROID GLAND: FOLLICULAR CELL ADENOMA, FOLLICULAR CELL CARCINOMA) was “active; positive”. The carcinogen call (Species: RAT, Strain/Sex: F344/MALE, Route: ORAL, Dose: 0, 83, 250 PPM IN FEED FOR 24 MO (STUDY DURATION: 2 YR), Dose: 0, 83, 250 PPM IN FEED FOR 24 MO (STUDY DURATION: 2 YR), Tumor Site: Type of Lesion: THYROID GLAND: FOLLICULAR CELL ADENOMA, FOLLICULAR CELL CARCINOMA) was “active; positive” and the carcinogen call (Species: RAT, Strain/Sex: STRAIN-CD/MALE,FEMALE, Route: ORAL, Dose: 175, 350 PPM IN DIET FOR 78 WK, Tumor Site: Type of Lesion: THYROID GLAND: FOLLICULAR CARCINOMA) was “active; positive”.

With `C/[N+]([O-])=N/CO[C@@H]1O[C@H](CO)[C@@H](O)[C@H](O)[C@H]1O` the carcinogen call (Species: GUINEA PIG, Route: ORAL, Dose: 0, 5% IN DIET OF CYCAD MEAL, 2-3 5-D PERIODS, Tumor Site: Type of Lesion: LIVER: HEPATOCELLULAR CARCINOMA, BILE DUCT) was “active; positive”, the carcinogen call (Species: GUINEA PIG, Route: ORAL, Tumor Site: Type of Lesion: LIVER, BILE DUCT) was “active; positive” and the carcinogen call (Species: HAMSTER, Route: GAVAGE, Dose: 0.1, 0.15 MG/G BW, SINGLE DOSE, Tumor Site: Type of Lesion: LIVER: HEPATOCELLULAR ADENOMA, BILE DUCT: CARCINOMA, HEMANGIOENDOTHELIAL SARCOMA, LUNG: ADENOMA, INTESTINES, KIDNEY: CAR, Tumor Site: Type of Lesion: LIVER: HEPATOCELLULAR ADENOMA, BILE DUCT: CARCINOMA, HEMANGIOENDOTHELIAL SARCOMA, LUNG: ADENOMA, INTESTINES, KIDNEY: CAR) was “active; positive”. The carcinogen call (Species: HAMSTER, Route: ORAL, Tumor Site: Type of Lesion: LIVER, LUNG, INTESTINES, KIDNEY, Tumor Site: Type of Lesion: LIVER, LUNG, INTESTINES, KIDNEY) was “active; positive”, the carcinogen call (Species: HAMSTER, Route: SUBCUTANEOUS, Tumor Site: Type of Lesion: LIVER) was “active; positive” and the carcinogen call (Species: MONKEY, Strain/Sex: AFRICAN GREEN, Route: ORAL, Dose: 0, 3% (50-75 MG/KG) IN DIET OF CRUDE CYCAD MEAL, 5 D/WK FOR UP TO 11 YR, Tumor Site: Type of Lesion: UNSPECIFIED: NEOPLASM) was “active; positive”. For the same compound, the carcinogen call (Species: MONKEY, Strain/Sex: CYNOMOLGUS, Route: ORAL, Dose: 0, 3% (50-75 MG/KG) IN DIET OF CRUDE CYCAD MEAL, 5 D/WK FOR UP TO 11 YR, Tumor Site: Type of Lesion: UNSPECIFIED: NEOPLASM) was “active; positive”, the carcinogen call (Species: MONKEY, Strain/Sex: RHESUS, Route: ORAL, Dose: 0, 3% (50-75 MG/KG) IN DIET OF CRUDE CYCAD MEAL, 5 D/WK FOR UP TO 11 YR, Tumor Site: Type of Lesion: UNSPECIFIED: NEOPLASM) was “active; positive” and the carcinogen call (Species: MOUSE, Route: SUBCUTANEOUS, Tumor Site: Type of Lesion: LIVER, LUNG) was “active; positive”. The carcinogen call (Species: RABBIT, Route: ORAL, Tumor Site: Type of Lesion: LIVER) was “active; positive”, the carcinogen call (Species: RAT, Route: ORAL, Tumor Site: Type of Lesion: INTESTINES, KIDNEY, LIVER, Tumor Site: Type of Lesion: INTESTINES, KIDNEY, LIVER) was “active; positive” and the carcinogen call (Species: RAT, Route: SUBCUTANEOUS, Tumor Site: Type of Lesion: KIDNEY, INTESTINES, LIVER, Tumor Site: Type of Lesion: KIDNEY, INTESTINES, LIVER) was “active; positive”. For the same compound, the carcinogen call (Species: RAT, Strain/Sex: SPRAGUE-DAWLEY/MALE,FEMALE, Route: GAVAGE, Dose: 3 ML/KG BW CYCAD EXTRACT, 1/WK FOR 12 WK, Tumor Site: Type of Lesion: INTESTINES) was “active; positive”, the carcinogen call (Species: RAT, Strain/Sex: SPRAGUE-DAWLEY/MALE,FEMALE, Route: RECTAL, Dose: 50 MG/KG BW INTO INTESTINE 1/WK FOR 12 WK, Tumor Site: Type of Lesion: INTESTINES) was “active; positive” and the carcinogen call (Species: RAT, Strain/Sex: SPRAGUE-DAWLEY/MALE, Route: GAVAGE, Dose: 80, 250 MG/KG, SINGLE DOSE, Tumor Site: Type of Lesion: INTESTINES (COLON OR RECTUM), INTESTINES (JEJUNUM OR ILEUM), DUODENUM, Tumor Site: Type of Lesion: INTESTINES (COLON OR RECTUM), INTESTINES (JEJUNUM OR ILEUM), DUODENUM) was “active; positive”. The carcinogen call (Species: RAT, Strain/Sex: SPRAGUE-DAWLEY/MALE, Route: GAVAGE, Dose: 80 MG/KG, 1/WK FOR 15 WK, Tumor Site: Type of Lesion: INTESTINES (COLON OR RECTUM), INTESTINES (JEJUNUM OR ILEUM)) was “active; positive”.

With `CC(O)CN(C)c1ccc(NN)nn1` (stereo not drawn) the carcinogen call (Species: MOUSE, Strain/Sex: B6C3F1/MALE,FEMALE, Route: ORAL, Dose: 100, 200, 400 PPM IN DRINKING WATER FOR 80 WK, Dose: 100, 200, 400 PPM IN DRINKING WATER FOR 80 WK) was “inactive; negative”.
